Measurements: ChEMBL document CHEMBL3301562, “MMV Box screening against Plasmodium falciparum protein kinases and aminoacyl tRNA synthetases”
pIC50: −log10 of the molar value.

How the values were obtained:
Assay type in all cases: functional
[1] = biological target: T1, Cdk-related protein kinase 6 (Plasmodium falciparum, UniProt O77239); assay: Final concentrations were 1.5 uM ATP, 5 mM MnCl2, and 15 ug/ml PK6 in a buffer of 100 mM Tris-HCl (pH 7.5). 50 ug/mL MBP was provided as the substrate; 10 uM staurosporine was used as a control inhibitor. Incubation time was 3 hours and 40 minutes.The catalytic activity of each kinase was considered proportional to ATP consumed, as determined from measurements of residual [ATP] with the luciferase-based reagent Kinase-Glo (Promega) following incubation. Luminescence (proportional to residual [ATP]) was measured on the plate readers FLx800 (BioTek Instruments, Winooski, VT, USA) and MicroBeta2.
T1 sequence (O77239 whole entry): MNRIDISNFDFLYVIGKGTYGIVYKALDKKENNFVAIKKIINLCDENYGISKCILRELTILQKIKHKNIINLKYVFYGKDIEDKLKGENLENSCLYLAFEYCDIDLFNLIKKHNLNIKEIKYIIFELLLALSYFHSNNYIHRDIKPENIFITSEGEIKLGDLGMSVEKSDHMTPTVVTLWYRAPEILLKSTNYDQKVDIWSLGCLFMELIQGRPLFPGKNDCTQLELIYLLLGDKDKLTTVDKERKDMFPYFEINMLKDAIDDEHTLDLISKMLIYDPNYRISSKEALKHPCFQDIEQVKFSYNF

[2] = biological target: T2, Putative uncharacterized protein pk7 (Plasmodium falciparum, UniProt O96214); assay: Final concentrations were 1 uM ATP, 2 mM DTT, 20 mM MgCl2, 2 mM MnCl2, 0.01% BSA, and 6 ug/ml PK7, in a buffer of 20 mM Tris-HCl (pH 7.5). The enzyme itself was the only substrate present (since autophosphorylation occurs); 100 uM 1NA-PP1 was used as a control inhibitor. Incubation time was 3 hours.
T2 sequence (O96214 whole entry): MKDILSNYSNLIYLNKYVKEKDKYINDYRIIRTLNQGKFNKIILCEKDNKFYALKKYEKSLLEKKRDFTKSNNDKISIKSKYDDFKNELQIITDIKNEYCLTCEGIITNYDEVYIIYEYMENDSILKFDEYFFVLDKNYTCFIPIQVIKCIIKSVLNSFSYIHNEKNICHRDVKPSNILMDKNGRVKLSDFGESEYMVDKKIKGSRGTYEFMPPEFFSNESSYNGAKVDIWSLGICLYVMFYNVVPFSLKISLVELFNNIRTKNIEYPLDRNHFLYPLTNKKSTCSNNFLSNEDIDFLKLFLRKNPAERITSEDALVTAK

[3] = biological target: T3, Mitogen-activated protein kinase (Plasmodium falciparum, UniProt Q25917); assay: Final concentrations were 1 uM ATP, 0.5 mM DTT, 1 mM MgCl2, 0.5 mg/mL BSA, and 10 ug/ml MAP2 in a buffer of 50 mM HEPES (pH 7.0). 0.5 mg/mL histone III-S served as the substrate (13); 100 uM AMP-PNP, an ATP analog, was used as a control inhibitor. Incubation time was 4 hours.
T3 sequence (Q25917 whole entry): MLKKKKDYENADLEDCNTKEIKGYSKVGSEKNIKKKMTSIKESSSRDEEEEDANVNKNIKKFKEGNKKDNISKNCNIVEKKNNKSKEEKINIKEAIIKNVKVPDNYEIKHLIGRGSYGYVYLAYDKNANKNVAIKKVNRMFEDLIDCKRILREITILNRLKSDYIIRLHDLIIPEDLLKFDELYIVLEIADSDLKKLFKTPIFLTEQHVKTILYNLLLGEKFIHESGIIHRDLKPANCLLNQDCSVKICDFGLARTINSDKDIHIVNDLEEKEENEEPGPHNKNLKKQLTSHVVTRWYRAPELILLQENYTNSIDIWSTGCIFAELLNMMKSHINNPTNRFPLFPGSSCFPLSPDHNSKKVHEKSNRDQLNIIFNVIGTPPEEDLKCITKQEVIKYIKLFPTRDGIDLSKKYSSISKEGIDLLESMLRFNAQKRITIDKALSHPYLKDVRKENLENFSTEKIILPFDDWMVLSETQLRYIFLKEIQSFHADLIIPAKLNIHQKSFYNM

[4] = biological target: Calcium-dependent protein kinase 1 (Plasmodium falciparum, UniProt P62344); assay: MMV: CDPK1 Protein kinase inhibition assay using recombinant PfCDPK1, syntide 2 peptide substrate, ATP and KinaseGlo to measure % inhibition at 1 uM MMV box compound.
Sequence of Calcium-dependent protein kinase 1 (P62344 whole entry): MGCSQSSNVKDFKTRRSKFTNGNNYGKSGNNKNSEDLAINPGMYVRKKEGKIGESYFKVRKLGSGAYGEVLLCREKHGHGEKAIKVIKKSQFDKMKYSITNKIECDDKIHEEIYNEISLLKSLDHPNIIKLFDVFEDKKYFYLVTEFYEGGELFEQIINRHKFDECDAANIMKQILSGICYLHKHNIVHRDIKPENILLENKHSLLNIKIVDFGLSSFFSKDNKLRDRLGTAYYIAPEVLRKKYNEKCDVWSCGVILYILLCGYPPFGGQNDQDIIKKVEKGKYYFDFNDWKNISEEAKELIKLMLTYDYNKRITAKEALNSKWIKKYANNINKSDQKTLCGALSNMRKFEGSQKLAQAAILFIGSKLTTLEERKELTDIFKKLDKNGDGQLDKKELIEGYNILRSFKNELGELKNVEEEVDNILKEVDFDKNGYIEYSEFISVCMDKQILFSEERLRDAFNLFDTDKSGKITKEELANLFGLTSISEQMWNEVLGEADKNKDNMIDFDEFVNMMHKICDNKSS

[5] = biological target: T4, Calcium-dependent protein kinase 4 (Plasmodium falciparum (isolate 3D7), UniProt Q8IBS5); assay: MMV: CDPK4 Protein kinase inhibition assay using recombinant PfCDPK4, syntide2 peptide substrate, ATP and KinaseGlo to measure % inhibition at 1 uM MMV box compound.
T4 sequence (Q8IBS5 whole entry): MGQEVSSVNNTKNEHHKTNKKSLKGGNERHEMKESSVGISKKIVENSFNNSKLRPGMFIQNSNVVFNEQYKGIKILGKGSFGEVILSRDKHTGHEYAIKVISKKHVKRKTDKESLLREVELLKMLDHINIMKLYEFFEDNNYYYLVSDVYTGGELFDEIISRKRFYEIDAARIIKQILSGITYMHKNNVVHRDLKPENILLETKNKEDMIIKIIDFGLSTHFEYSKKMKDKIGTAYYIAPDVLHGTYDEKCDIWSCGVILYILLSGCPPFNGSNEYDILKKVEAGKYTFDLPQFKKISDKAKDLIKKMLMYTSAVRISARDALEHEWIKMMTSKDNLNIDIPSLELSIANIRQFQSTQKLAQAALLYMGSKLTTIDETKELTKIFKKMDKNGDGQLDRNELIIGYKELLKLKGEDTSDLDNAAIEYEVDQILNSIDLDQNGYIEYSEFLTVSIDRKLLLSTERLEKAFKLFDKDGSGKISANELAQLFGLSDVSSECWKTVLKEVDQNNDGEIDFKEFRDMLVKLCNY

Proline--tRNA ligase = biological target: T5, Proline--tRNA ligase (Plasmodium falciparum (isolate 3D7), UniProt Q8I5R7); assay: MMV: ProRS recombinant Plasmodium falciparum Prolyl-tRNA-synthetase, assay with yeast tRNA, ATP, and proline and 3 uM MMV malaria box compound, assay read out with kinase glo as % inhibition.
T5 sequence (Q8I5R7 whole entry): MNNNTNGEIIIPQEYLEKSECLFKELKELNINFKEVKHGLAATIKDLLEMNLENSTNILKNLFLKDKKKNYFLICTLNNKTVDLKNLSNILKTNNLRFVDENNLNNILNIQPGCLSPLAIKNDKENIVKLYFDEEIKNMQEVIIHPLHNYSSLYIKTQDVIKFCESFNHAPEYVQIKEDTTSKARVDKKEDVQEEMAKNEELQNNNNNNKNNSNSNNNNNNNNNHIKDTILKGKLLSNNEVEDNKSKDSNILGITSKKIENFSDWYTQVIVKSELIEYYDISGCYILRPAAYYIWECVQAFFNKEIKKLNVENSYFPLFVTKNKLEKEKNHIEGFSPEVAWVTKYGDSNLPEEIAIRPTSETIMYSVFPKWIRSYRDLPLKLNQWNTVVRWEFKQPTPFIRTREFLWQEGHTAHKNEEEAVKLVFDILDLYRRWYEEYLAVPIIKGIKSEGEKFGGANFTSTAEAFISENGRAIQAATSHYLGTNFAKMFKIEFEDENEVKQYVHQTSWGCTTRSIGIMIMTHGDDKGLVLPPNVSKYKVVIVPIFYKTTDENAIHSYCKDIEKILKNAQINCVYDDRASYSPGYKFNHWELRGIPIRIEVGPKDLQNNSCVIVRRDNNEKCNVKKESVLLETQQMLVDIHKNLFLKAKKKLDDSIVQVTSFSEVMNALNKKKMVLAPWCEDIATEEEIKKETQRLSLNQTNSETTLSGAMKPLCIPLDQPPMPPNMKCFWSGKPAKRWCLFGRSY

Lysine--tRNA ligase = Lysine--tRNA ligase (Plasmodium falciparum (isolate 3D7), UniProt Q8IDJ8); assay: MMV: KRS recombinant Plasmodium falciparum Lysyl-tRNA-synthetase, assay with yeast tRNA, ATP, and lysine and 3 uM MMV malaria box compound, assay read out with kinase glo as % inhibition.
Sequence of Lysine--tRNA ligase (Q8IDJ8 whole entry): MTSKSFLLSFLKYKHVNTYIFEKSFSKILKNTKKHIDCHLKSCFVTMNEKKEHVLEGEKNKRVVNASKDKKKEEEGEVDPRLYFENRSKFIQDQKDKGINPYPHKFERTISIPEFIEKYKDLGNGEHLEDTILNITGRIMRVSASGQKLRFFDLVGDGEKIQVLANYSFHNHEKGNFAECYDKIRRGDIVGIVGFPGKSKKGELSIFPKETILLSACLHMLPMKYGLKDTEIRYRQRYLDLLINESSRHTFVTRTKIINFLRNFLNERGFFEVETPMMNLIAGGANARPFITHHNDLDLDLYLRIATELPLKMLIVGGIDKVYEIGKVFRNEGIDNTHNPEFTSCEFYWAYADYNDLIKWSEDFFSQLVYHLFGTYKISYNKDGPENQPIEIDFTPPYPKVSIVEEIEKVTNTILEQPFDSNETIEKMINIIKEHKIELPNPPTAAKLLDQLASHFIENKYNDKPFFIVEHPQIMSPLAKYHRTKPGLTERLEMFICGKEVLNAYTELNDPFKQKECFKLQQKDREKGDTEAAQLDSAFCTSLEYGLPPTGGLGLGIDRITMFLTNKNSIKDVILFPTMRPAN

SMILES | pIC50 [1] | pIC50 [2] | pIC50 [3] | pIC50 [4] | pIC50 [5] | pIC50 (Proline--tRNA ligase) | pIC50 (Lysine--tRNA ligase)
O=C(Nc1ccccc1O)c1ccc(Oc2cccc(C(=O)Nc3ccccc3O)c2)cc1 | < 6.00 | < 6.00 | < 6.00 | < 6.00 | < 6.00 | < 5.60 | < 5.60
N=c1n(CCN2CCCCC2)c2ccccc2n1CC(O)c1cccc(Br)c1 (configuration not stated) | < 6.00 | < 6.00 | < 6.00 | < 6.00 | < 6.00 | < 5.60 | < 5.60
COc1cccc(O)c1CN1CCC2(CCCN(Cc3ccc(F)cc3)C2)C1 (configuration not stated) | < 6.00 | < 6.00 | < 6.00 | < 6.00 | < 6.00 | < 5.60 | < 5.60
COc1ccc(C(=O)Nc2ccc3nc(N4CCCCC4)cc(C)c3c2)cc1OC | < 6.00 | < 6.00 | < 6.00 | < 6.00 | < 6.00 | < 5.60 | < 5.60
FC(F)(F)c1ccc(Nc2nnnc3ccccc23)cc1 | < 6.00 | < 6.00 | < 6.00 | < 6.00 | < 6.00 | < 5.60 | < 5.60
COc1cccc(NC(=O)Cn2c(C)c(C#N)c3ccccc32)c1 | < 6.00 | < 6.00 | < 6.00 | < 6.00 | < 6.00 | < 5.60 | < 5.60
CC(C)=CCN1CCC(C(=O)Nc2ccc(-c3nc4ccccc4[nH]3)cc2)CC1 | < 6.00 | < 6.00 | < 6.00 | < 6.00 | < 6.00 | < 5.60 | < 5.60
FC(F)(F)c1cccc(Nc2nc(-c3ccccc3)nc3ncccc23)c1 | < 6.00 | < 6.00 | < 6.00 | < 6.00 | < 6.00 | < 5.60 | < 5.60
CCN1CCN(c2cc(C)c3cc(NC(=O)c4ccc(OC)c(OC)c4)ccc3n2)CC1 | < 6.00 | < 6.00 | < 6.00 | < 6.00 | < 6.00 | < 5.60 | < 5.60
COc1ccc(CNC2CCN(c3ccc(NC(=O)c4cccc(Cl)c4)cc3)CC2)cc1OC | < 6.00 | < 6.00 | < 6.00 | < 6.00 | < 6.00 | < 5.60 | < 5.60
CC(NCc1ccccc1)c1cc(Cl)ccc1O (configuration not stated) | < 6.00 | < 6.00 | < 6.00 | < 6.00 | < 6.00 | < 5.60 | < 5.60
COc1ccc(C(=O)Nc2ccc(Cl)cc2C(=O)Nc2ccncc2)cc1 | < 6.00 | < 6.00 | < 6.00 | < 6.00 | < 6.00 | < 5.60 | < 5.60
CN(C)c1ccc(-c2nc3cc(N)ccc3[nH]2)cc1 | < 6.00 | < 6.00 | < 6.00 | < 6.00 | < 6.00 | < 5.60 | < 5.60
Cc1c(C)n(Cc2ccc(F)cc2)c2ccc(C(=O)NCc3ccco3)cc12 | < 6.00 | < 6.00 | < 6.00 | < 6.00 | < 6.00 | < 5.60 | < 5.60
CCN(CC)c1ccc(NC(=O)c2cccs2)cc1 | < 6.00 | < 6.00 | < 6.00 | < 6.00 | < 6.00 | < 5.60 | < 5.60
O=C(Nc1ccsc1C(=O)NC1CCCCC1)c1ccc(F)cc1 | < 6.00 | < 6.00 | < 6.00 | < 6.00 | < 6.00 | < 5.60 | < 5.60
O=C(Nc1cccc(C(F)(F)F)c1)c1cc(Cl)ccc1O | < 6.00 | < 6.00 | < 6.00 | < 6.00 | < 6.00 | < 5.60 | < 5.60
CCN(CC)c1cc(C)c2cc(NC(=O)c3cccc(OC)c3)ccc2n1 | < 6.00 | < 6.00 | < 6.00 | < 6.00 | < 6.00 | < 5.60 | < 5.60
CCOc1ccc(-c2nc(NC(=O)c3cccc(S(C)(=O)=O)c3)sc2C)cc1 | < 6.00 | < 6.00 | < 6.00 | < 6.00 | < 6.00 | < 5.60 | < 5.60
COc1ccccc1N1CCN(C(CNS(=O)(=O)c2ccc(Cl)cc2)c2cccnc2)CC1 (configuration not stated) | < 6.00 | < 6.00 | < 6.00 | < 6.00 | < 6.00 | < 5.60 | < 5.60
C=C(C)CCC(C)N1CCC(N2CCC(C(=O)NCCc3ccccc3)CC2)CC1 (configuration not stated) | < 6.00 | < 6.00 | < 6.00 | < 6.00 | < 6.00 | < 5.60 | < 5.60
